Results on 25 compounds are retold here after US4925852A, “3-demethylmevalonic acid derivatives, and pharmaceutical products based on these compounds” (Hoechst Aktiengesellschaft, priority 1987, dated 1990).

Molecules are shown by their SMILES. Where a name gives a salt, the structure may show the parent alone.

The first experiment has as its system cholesterol.
Assay: not given
As to conditions: literature; cited from earlier work.
For the compound `CC(O)(CC(=O)O)CC(=O)O` [3-Hydroxy-3-methylglutaric acid], the “cholesterol-lowering action in human experiments” value is “significant cholesterol-lowering action”.

The test system of the next experiment is HEP-G2 cells (cholesterol biosynthesis). The experiment in a line: Inhibition of cholesterol biosynthesis in cell cultures of HEP-G2 cells (14C-acetate into 14C-cholesterol). As to conditions: Homo sapiens, HepG2, Table 2, preincubation for example 1 hour, 14C-acetate for example 3 hours, read-out: IC50 (concentration of the compound which brings about 50% inhibition of cholesterol biosynthesis). In kind it is cell-based. As for the experimental part:
Monolayers of HEP-G2 cells in lipoprotein-free nutrient medium were preincubated with appropriate concentrations of the test substances for a defined time (for example 1 hour), the labeled precursor, for example sodium ^14 C-acetate was added and then the incubation was continued (for example for 3 hours). Addition of an internal standard (^3 H-cholesterol) was followed by alkaline hydrolysis of some of the cells. The lipids were extracted from the hydrolyzed cells using chloroform/methanol. Carrier cholesterol was added to this lipid mixture which was then subjected to preparative thin-layer chromatography, the cholesterol band was visualized with iodine vapor and then isolated, and the amount of ^14 C-cholesterol formed from the ^14 C-precursor was determined by scintigraphy. Cellular protein was determined in an aliquot of the cells, so that it is possible to calculate the amount of ^14 C-cholesterol formed per mg of cellular protein in unit time.
in nmol of ^14 C-cholesterol/mg of cell protein
in comparison with the solvent control.
Using the method described above, the following values for the inhibition of cholesterol biosynthesis (in HEP-G2 cells) were determined for the compounds according to the invention, for example (the IC50 /mol/liter is the concentration of the compound which brings about 50% inhibition of cholesterol biosynthesis) (Tab. 2): […]
For the compound `Cc1nc(-c2ccccc2)cc(-c2ccc(F)cc2)c1/C=C/[C@@H]1C[C@@H](O)CC(=O)O1` [Example 11c], the IC50 worked out at 90 nM.

Consider `CC(C)c1nc(-c2ccccc2)nc(-c2ccc(F)cc2)c1/C=C/[C@@H]1C[C@@H](O)CC(=O)O1` [Example 11o], for which the IC50 amounted to 5 nM.

As for `CC(C)c1nc(-c2ccccc2)cc(-c2ccc(F)cc2)c1/C=C/[C@@H]1C[C@@H](O)CC(=O)O1` [Example 11e], the IC50 was 5 nM.

For the compound `Cc1cc(-c2ccc(F)cc2)c(/C=C/[C@@H]2C[C@@H](O)CC(=O)O2)c(C(C)C)n1` [Example 11d], the IC50 worked out at 50 nM.

The target of the next experiment is T1, HMG-CoA reductase (Rattus norvegicus, UniProt P51639).
T1 construct: solubilized enzyme preparations from rat liver microsomes; from tissue; host or cells: rat liver microsomes (cholestyramine-induced), solubilized
T1 sequence (P51639 1-887): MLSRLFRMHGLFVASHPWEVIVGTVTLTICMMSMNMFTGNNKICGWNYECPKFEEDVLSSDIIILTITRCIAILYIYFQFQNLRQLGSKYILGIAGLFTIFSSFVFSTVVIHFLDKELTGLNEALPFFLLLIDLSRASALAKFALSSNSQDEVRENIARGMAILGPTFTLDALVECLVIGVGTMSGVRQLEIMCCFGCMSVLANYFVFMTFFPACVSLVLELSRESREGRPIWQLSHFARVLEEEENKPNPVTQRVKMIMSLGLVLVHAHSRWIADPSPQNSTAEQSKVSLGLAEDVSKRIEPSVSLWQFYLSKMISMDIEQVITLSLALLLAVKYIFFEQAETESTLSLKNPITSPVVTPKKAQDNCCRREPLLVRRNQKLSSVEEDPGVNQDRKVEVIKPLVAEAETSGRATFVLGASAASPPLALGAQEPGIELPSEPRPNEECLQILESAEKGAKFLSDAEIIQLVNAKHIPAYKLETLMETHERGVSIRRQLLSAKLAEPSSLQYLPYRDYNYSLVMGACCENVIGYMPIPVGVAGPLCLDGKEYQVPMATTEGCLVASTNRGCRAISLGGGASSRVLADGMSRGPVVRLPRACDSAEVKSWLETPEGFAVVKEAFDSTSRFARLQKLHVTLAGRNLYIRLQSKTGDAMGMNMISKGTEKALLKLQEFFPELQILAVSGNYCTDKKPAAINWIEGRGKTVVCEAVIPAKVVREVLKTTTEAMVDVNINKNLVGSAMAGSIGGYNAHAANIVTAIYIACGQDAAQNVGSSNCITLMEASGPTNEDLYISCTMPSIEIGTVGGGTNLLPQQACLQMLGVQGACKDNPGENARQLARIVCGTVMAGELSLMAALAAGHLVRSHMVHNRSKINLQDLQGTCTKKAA
The experiment can be described thus: HMG-CoA reductase activity in solubilized enzyme preparations from rat liver microsomes (14C-HMG-CoA). In kind it is biochemical. As to conditions: Table 1; solubilized rat liver microsomal enzyme; mean of 3 parallel samples; read-out: IC50 (molar concentration of the compound required for 50% inhibition of HMG-CoA reductase). As for the experimental part: The HMG-CoA reductase activity was measured on solubilized enzyme preparations from rat liver microsomes induced, after a changeover in the day/night rhythm, with cholestyramine (® CUEMID). The substrate used was (S,R)-^14 C-HMG-CoA, and the NADPH concentration was maintained during the incubation by a regenerating system. ^14 C-Mevalonate was separated from the substrate and other products (for example ^14 C-HMG) by column elution, the elution profile of each individual sample being determined. ^3 H-Mevalonate was not always included in the determination because relative data on the inhibitory effects were required. […] Each individual value was the mean formed from 3 parallel samples. The significance of the mean differences between product-free and product-containing samples was assessed using the t test.
For the compound `CC(C)c1nc(-c2ccc(F)cc2)cc(-c2ccc(F)cc2)c1/C=C/[C@@H](O)C[C@@H](O)CC(=O)O` [Example 13j], the IC50 stood at 2.3 nM.

Consider `O=C(O)C[C@H](O)C[C@H](O)/C=C/c1c(-c2ccc(F)cc2)cc(-c2ccccc2)nc1C1CC1` [Example 13ac], for which the IC50 was 1 nM.

On to `CC(C)(C)c1nc(-c2ccccc2)cc(-c2ccc(F)cc2)c1/C=C/[C@@H](O)C[C@@H](O)CC(=O)O` [Example 13g], for which the IC50 stood at 18 nM.

`Cc1cc(-c2ccc(F)cc2)c(/C=C/[C@@H](O)C[C@@H](O)CC(=O)O)c(C)n1` [Example 13a, (E)- and (Z)-(3R,5S)-3,5-Dihydroxy-7-(2,6-dimethyl-4-(4-fluorophenyl)pyridin-3-yl)-6-heptenoic acid potassium salts]: the IC50 stood at 260 nM.

For the compound `Cc1cc(-c2ccc(Cl)cc2)c(/C=C/[C@@H](O)C[C@@H](O)CC(=O)O)c(C)n1` [Example 13b], the IC50 was found to be 94 nM.

As for `CC(C)c1nc(-c2ccc(F)cc2)c(/C=C/[C@@H](O)C[C@@H](O)CC(=O)O)c(C(C)C)n1` [Example 13v], the IC50 was 2.5 nM.

On to `Cc1cc(-c2ccc(F)cc2)c(/C=C/[C@@H](O)C[C@@H](O)CC(=O)O)c(C(C)C)n1` [Example 13d], for which the IC50 was determined as 9.1 nM.

On to `CC(C)c1cc(-c2ccccc2)nc(-c2ccc(F)cc2)c1/C=C/[C@@H](O)C[C@@H](O)CC(=O)O` [Example 13f], for which the IC50 is 4 nM.

As to `Cc1nc(C)c(/C=C/[C@@H](O)C[C@@H](O)CC(=O)O)c(-c2ccc(Cl)cc2)n1` [Example 13l], the IC50 turned out to be 600 nM.

Take `Cc1nc(-c2ccccc2)cc(-c2ccc(F)cc2)c1/C=C/[C@@H](O)C[C@@H](O)CC(=O)O` [Example 13c]: the IC50 was 38 nM.

As to `CC(C)c1nc(-c2ccccc2)cc(-c2ccc(F)cc2)c1/C=C/[C@@H](O)C[C@@H](O)CC(=O)O` [Example 13e], the IC50 came out at 2.9 nM.

On to `CC(C)c1nc(-c2ccc(O)cc2)cc(-c2ccc(F)cc2)c1/C=C/[C@@H](O)C[C@@H](O)CC(=O)O` [Example 13ab], for which the IC50 stood at 1.5 nM.

As for `Cc1nc(C)c(/C=C/[C@@H](O)C[C@@H](O)CC(=O)O)c(-c2ccc(F)cc2)n1` [Example 13k], the IC50 came to 500 nM.

In the case of `Cc1ccc(C)c(-c2cc(-c3ccc(F)cc3)c(/C=C/[C@@H](O)C[C@@H](O)CC(=O)O)c(C(C)C)n2)c1` [Example 13i], the IC50 came to 5 nM.

As for `CC(C)c1nc(C2CCCCC2)cc(-c2ccc(F)cc2)c1/C=C/[C@@H](O)C[C@@H](O)CC(=O)O` [Example 13s], the IC50 was 3.7 nM.

For the compound `CC(C)c1nc(-c2ccc(F)cc2)nc(-c2ccc(F)cc2)c1/C=C/[C@@H](O)C[C@@H](O)CC(=O)O` [Example 13w], the IC50 came to 0.9 nM.

`CC(C)c1cc(-c2ccc(F)cc2)c(/C=C/[C@@H](O)C[C@@H](O)CC(=O)O)c(C(C)C)n1` [Example 13q]: the IC50 worked out at 2.5 nM.

`CC(C)c1nc(C(C)(C)C)cc(-c2ccc(F)cc2)c1/C=C/[C@@H](O)C[C@@H](O)CC(=O)O` [Example 13r]: the IC50 was determined as 1.2 nM.

As to `CC(C)c1nc(-c2ccccc2)nc(-c2ccc(F)cc2)c1/C=C/[C@@H](O)C[C@@H](O)CC(=O)O` [Example 13o], the IC50 worked out at 3 nM.

In a further experiment the test system is cholesterol.
Assay: not given
As to conditions: literature; cited from earlier work. This is another data set of the same source.
Consider `CC(O)(CC(=O)O)CC(=O)O` [3-Hydroxy-3-methylglutaric acid], for which the “cholesterol-lowering action in the rat” value was “significant cholesterol-lowering action”.

The test system of a further experiment is 3-hydroxy-3-methylglutaryl-coenzyme A reductase (HMG-CoA reductase).
Assay: not given
As to conditions: cited from earlier work.
As for `CC[C@H](C)C(=O)O[C@H]1CCC=C2C=C[C@H](C)[C@H](CC[C@@H]3C[C@@H](O)CC(=O)O3)[C@H]21` [compactin], the “inhibition of HMG-CoA reductase (literature)” value is “inhibition”.
